The target in data set [1] is Aurora-B (h) (Homo sapiens (Human), UniProt Q96GD4). In words: Aurora-B (h) kinase activity assay. It counts as biochemical. The protocol:
(§1) The above assay procedure can be used to determine the IC50 for inhibition and/or the inhibition constant, Ki. The IC50 is defined as the concentration of compound required to reduce the enzyme activity by 50% under the condition of the assay. The IC50 value is estimated by preparing a 10 point curve using a ½ log dilution series (for example, a typical curve may be prepared using the following compound concentrations: 3 μM, 1 μM, 0.3 μM, 0.1 μM, 0.03 μM, 0.01 μM, 0.003 μM, 0.001 μM, 0.0003 μM and 0 μM).
Aurora-B (h) is incubated with 8 mM MOPS pH 7.0, 0.2 mM EDTA, 30 μM AKRRRLSSLRA, 10 mM MgAcetate and [γ-^33PATP] (specific activity approx. 500 cpm/pmol, concentration as required). The reaction is initiated by the addition of the MgATP mix. After incubation for 40 minutes at room temperature, the reaction is stopped by the addition of a 3% phosphoric acid solution. 10 μL of the reaction is then spotted onto a P30 filtermat and washed three times for 5 minutes in 75 mM phosphoric acid and once in methanol prior to drying and scintillation counting.
(§2) The kinase assays described herein were performed at Millipore UK Ltd, Dundee Technology Park, Dundee DD2 1SW, UK.

The target of data set [2] is Aurora-A (h) (Homo sapiens (Human), UniProt O14965). Kind of data set: Aurora-A (h) kinase activity assay. It counts as biochemical. The protocol: as §1
Aurora-A (h) is incubated with 8 mM MOPS pH 7.0, 0.2 mM EDTA, 200 μM LRRASLG (Kemptide), 10 mM MgAcetate and [γ-^33P-ATP] (specific activity approx. 500 cpm/pmol, concentration as required). The reaction is initiated by the addition of the MgATP mix. After incubation for 40 minutes at room temperature, the reaction is stopped by the addition of 3% phosphoric acid solution. 10 μL of the reaction is then spotted onto a P30 filtermat and washed three times for 5 minutes in 75 mM phosphoric acid and once in methanol prior to drying and scintillation counting.
as §2

Data set [3] is described as follows: Pharmacokinetics after intravenous and oral administration in rats. It counts as in vivo. To be noted: for Clearance (CL) after iv dosing / AUC(0-t) / half-life / Vd: dose 1 mg/kg, iv dosing; for F: oral bioavailability, iv dose 1 mg/kg; for AUC(0-t) / half-life / Vd: rat, plasma; for Vd: read-out: Vss. The method, then:
The compounds disclosed herein are assessed in pharmacokinetic studies in mice, rats, dogs or monkeys. The compounds are administered as a water solution, 2% HPMC+1% TWEEN®80 in water solution, 5% DMSO+5% solutol in saline, 4% MC suspension or capsule. For the intravenous administration, the animals are generally given at 0.5, 1 or 2 mg/kg dose. For the oral (p.o.) dosing, mice and rats are generally given 0.5, 1, 5 or 10 mg/kg dose, and dogs and monkeys are generally given 10 mg/kg dose. The blood samples (0.3 mL) are drawn at 0.25, 0.5, 1.0, 2.0, 3.0, 4.0, 6.0, 8.0, 12 and 24 h time points or 0.083, 0.25, 0.5, 1.0, 2.0, 4.0, 6.0, 8.0 and 24 h time points and centrifuged at 3,000 or 4000 rpm for 2 to 10 min. The plasma solutions are collected, and stored at −20° C. or −70° C. until analyzed by LC/MS/MS as described above.

Data set [4] in a line: Compound stability in rat liver microsomes. Particulars: pH 7.4; for half-life at 5 μM: rat liver microsomes 0.5 mg protein/mL, compound 5 μM, NADPH 1.0 mM, 37° C., read-out: Rat T1/2; for CLint scaled at 5 μM: rat liver microsomes, in vivo CLint extrapolated. It counts as in vitro ADME. The protocol: (§3) Human or rat liver microsomes incubations were conducted in duplicate in polypropylene tubes. The typical incubation mixtures consisted of human or rat liver microsomes (0.5 mg protein/mL), compounds of interest (5 μM) and NADPH (1.0 mM) in a total volume of 200 μL potassium phosphate buffer (PBS, 100 mM, pH 7.4). Compounds were dissolved in DMSO and diluted with PBS such that the final concentration of DMSO was 0.05%. The enzymatic reactions were commenced with the addition of protein after a 3-min preincubation and incubated in a water bath open to the air at 37° C. Reactions were terminated at various time points (0, 5, 10, 15, 30, 60 min) by adding equal volume of ice-cold acetonitrile. The samples were stored at −80° C. until LC/MS/MS assays.
(§4) The concentrations of compounds in the incubation mixtures of human or rat liver microsomes were determined by a LC/MS/MS method. The ranges of the linearity in the concentration range were determined for each tested compounds.
(§5) A parallel incubation was performed using denatured microsomes as the negative control, and reactions were terminated at various time points (0, 15, 60 min) after incubation at 37° C.
(§6) Dextromethorphan (70 μM) was selected as the positive control, and reactions were terminated at various time points (0, 5, 10, 15, 30, 60 min) after incubation at 37° C. Both positive and negative control samples were included in each assay to ensure the integrity of the microsomal incubation system.
(§7) The concentrations of compounds in human or rat liver microsome incubations were plotted as a percentage of the relevant zero time point control for each reaction. The in vivo CLint were extrapolated (ref.: Naritomi, Y.; Terashita, S.; Kimura, S.; Suzuki, A.; Kagayama, A.; and Sugiyama, Y.; Prediction of human hepatic clearance from in vivo animal experiments and in vitro metabolic studies with liver microsomes from animals and humans. Drug Metab. Dispos., 2001, 29: 1316-1324).

The nature of data set [5]: Compound stability in human liver microsomes. It counts as in vitro ADME. Particulars: pH 7.4; for half-life at 5 μM: human liver microsomes 0.5 mg protein/mL, compound 5 μM, NADPH 1.0 mM, 37° C., read-out: Human T1/2; for CLint scaled at 5 μM: human liver microsomes, in vivo CLint extrapolated. The method, then:
as §3, §4, §5, §6, §7

The target of data set [6] is JAK1 (h) (Homo sapiens (Human), UniProt P23458). In words: JAK1 (h) kinase activity assay. It counts as biochemical. The protocol:
as §1
JAK1 (h) is incubated with 20 mM Tris/HCl pH 7.5, 0.2 mM EDTA, 500 μM GEEPLYWSFPAKKK, 10 mM MgAcetate and [γ-^33P-ATP] (specific activity approx. 500 cpm/pmol, concentration as required). The reaction is initiated by the addition of the MgATP mix. After incubation for 40 minutes at room temperature, the reaction is stopped by the addition of 3% phosphoric acid solution. 10 μL of the reaction is then spotted onto a P30 filtermat and washed three times for 5 minutes in 75 mM phosphoric acid and once in methanol prior to drying and scintillation counting.
as §2

Chain of Aurora-B (h) (Q96GD4 whole entry): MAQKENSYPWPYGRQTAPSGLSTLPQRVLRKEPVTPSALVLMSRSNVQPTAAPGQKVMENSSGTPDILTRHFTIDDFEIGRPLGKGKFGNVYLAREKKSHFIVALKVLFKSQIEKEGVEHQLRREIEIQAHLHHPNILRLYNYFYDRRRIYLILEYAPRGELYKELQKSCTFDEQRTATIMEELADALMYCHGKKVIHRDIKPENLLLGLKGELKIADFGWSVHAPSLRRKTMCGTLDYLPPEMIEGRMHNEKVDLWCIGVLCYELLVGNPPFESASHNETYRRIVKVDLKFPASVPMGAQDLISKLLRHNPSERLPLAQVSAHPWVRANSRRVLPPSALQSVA
Chain of Aurora-A (h) (O14965 whole entry): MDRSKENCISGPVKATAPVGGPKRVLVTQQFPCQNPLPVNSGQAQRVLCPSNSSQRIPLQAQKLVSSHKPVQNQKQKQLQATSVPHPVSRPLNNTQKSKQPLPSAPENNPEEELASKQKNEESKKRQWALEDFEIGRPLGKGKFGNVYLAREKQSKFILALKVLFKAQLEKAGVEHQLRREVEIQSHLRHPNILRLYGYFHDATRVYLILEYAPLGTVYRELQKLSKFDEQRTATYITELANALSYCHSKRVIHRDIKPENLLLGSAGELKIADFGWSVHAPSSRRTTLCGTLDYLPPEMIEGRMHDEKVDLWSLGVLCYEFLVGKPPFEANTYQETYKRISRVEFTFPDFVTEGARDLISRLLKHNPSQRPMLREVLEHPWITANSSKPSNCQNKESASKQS
Chain of JAK1 (h) (P23458 whole entry): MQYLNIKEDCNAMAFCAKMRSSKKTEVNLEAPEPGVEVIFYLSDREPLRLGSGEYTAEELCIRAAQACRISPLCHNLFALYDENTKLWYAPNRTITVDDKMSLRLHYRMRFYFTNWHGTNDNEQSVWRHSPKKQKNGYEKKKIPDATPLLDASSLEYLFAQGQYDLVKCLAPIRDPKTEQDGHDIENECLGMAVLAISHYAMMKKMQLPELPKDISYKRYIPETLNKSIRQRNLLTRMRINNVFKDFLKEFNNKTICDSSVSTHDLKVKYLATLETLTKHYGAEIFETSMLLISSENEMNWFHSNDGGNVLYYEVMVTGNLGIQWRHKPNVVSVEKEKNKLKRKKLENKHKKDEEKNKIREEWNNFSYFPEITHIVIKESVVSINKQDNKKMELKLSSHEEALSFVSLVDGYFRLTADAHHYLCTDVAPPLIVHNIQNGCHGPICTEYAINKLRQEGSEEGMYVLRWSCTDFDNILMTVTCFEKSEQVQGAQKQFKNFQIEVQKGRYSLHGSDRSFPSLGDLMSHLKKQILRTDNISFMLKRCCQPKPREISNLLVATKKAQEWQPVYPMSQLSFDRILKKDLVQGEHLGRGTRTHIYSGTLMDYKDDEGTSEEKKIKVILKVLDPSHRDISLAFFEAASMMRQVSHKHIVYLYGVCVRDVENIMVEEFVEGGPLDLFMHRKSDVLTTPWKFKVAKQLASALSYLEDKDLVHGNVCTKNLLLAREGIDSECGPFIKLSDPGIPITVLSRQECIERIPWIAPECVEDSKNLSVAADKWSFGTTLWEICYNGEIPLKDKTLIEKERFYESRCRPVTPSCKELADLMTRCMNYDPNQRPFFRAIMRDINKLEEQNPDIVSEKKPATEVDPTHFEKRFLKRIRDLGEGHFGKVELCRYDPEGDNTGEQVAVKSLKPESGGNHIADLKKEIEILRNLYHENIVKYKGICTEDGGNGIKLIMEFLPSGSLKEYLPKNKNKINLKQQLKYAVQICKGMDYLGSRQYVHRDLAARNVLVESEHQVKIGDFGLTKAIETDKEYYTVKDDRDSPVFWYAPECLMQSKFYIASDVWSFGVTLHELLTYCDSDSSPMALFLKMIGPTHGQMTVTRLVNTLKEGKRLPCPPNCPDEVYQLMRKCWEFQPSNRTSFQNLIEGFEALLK

In data set [1], `CC(O)Cn1cc(Nc2ncc(Cl)c(NC3CC4CN(S(=O)(=O)CC5CC5)CC4C3)n2)cn1` (stereo not shown) [Ex. 46, 1-(4-((5-chloro-4-((2-((cyclopropylmethyl)sulfonyl)octahydrocyclopenta[c]pyrrol-5-yl)amino)pyrimidin-2-yl)amino)-1H-pyrazol-1-yl)propan-2-ol] had an IC50 of 1 nM. The same molecule yielded a 50% inhibitory concentration (IC50) in data set [2] of 10 nM. Moreover, in data set [3], the “Clearance (CL) after iv dosing” value stood at 60.7 mL/min/kg, the F was found to be 24.9%, the AUC(0-t) was 277 ng·h/mL and the half-life was 15.6 min. The Vd in data set [3] was found to be 1.13 L/kg.

Turning to `CCNS(=O)(=O)N1CC2CC(Nc3nc(Nc4cnn(C)c4)ncc3Cl)CC2C1` (stereo not shown) [Ex. 24, 5-((5-chloro-2-((1-methyl-1H-pyrazol-4-yl)amino)pyrimidin-4-yl)amino)-N-ethylhexahydrocyclopenta[c]pyrrole-2(1H)-sulfonamide], in data set [4], the half-life at 5 μM amounted to 9.3 min and the intrinsic metabolic clearance (CLint scaled) at 5 μM was 267 mL/min/kg. In addition, in data set [5], the half-life at 5 μM stood at 34 min and the CLint scaled at 5 μM is 51.2 mL/min/kg. In data set [6], this molecule returned an IC50 of 2 nM. Moreover, half-maximal inhibition in data set [1] (IC50) was put at 0.7 nM. Further, in data set [2], half-maximal inhibition (IC50) was put at 3 nM. For the same molecule, in data set [3], the “Clearance (CL) after iv dosing” value turned out to be 75.8 mL/min/kg, the F is recorded as 31.9%, the AUC(0-t) came to 231 ng·h/mL and the half-life is 24 min. Also, the Vd in data set [3] is 2.02 L/kg.

Take `CC(O)Cn1cc(Nc2ncc(Cl)c(NC3CC4CN(S(=O)(=O)NC5CC5)CC4C3)n2)cn1` (stereo not shown) [Ex. 47, 5-((5-chloro-2-((1-(2-hydroxypropyl)-1H-pyrazol-4-yl)amino)pyrimidin-4-yl)amino)-N-cyclopropylhexahydrocyclopenta[c]pyrrole-2(1H)-sulfonamide]: inhibition in data set [1] was half-maximal at 0.6 nM (IC50). The molecule also yielded an IC50 in data set [2] of 7 nM. Besides, in data set [3], the “Clearance (CL) after iv dosing” value is 69.3 mL/min/kg, the F was 22.4%, the AUC(0-t) is 239 ng·h/mL and the half-life is 42.6 min. Moreover, the Vd in data set [3] worked out at 2.37 L/kg.

In the case of `Cn1cc(Nc2ncc(Cl)c(NC3CC4CN(C(=O)C5CC5)CC4C3)n2)cn1` (stereo not shown) [Ex. 14, (5-((5-chloro-2-((1-methyl-1H-pyrazol-4-yl)amino)pyrimidin-4-yl)amino)hexahydrocyclopenta[c]pyrrol-2(1H)-yl)(cyclopropyl)methanone], the half-life at 5 μM in data set [4] turned out to be 3.33 min; in data set [5], 44.2 min. The results for the CLint scaled at 5 μM in data set [4] and in data set [5] were 745 mL/min/kg and 39.4 mL/min/kg, respectively. Also, the figures for the IC50 in data set [6] and in data set [2] were 6 nM and 21 nM, respectively.

With `CCNS(=O)(=O)N1CC2CC(Nc3nc(Nc4cnn(CC(C)O)c4)ncc3Cl)CC2C1` (stereo not shown) [Ex. 45, 5-((5-chloro-2-((1-(2-hydroxypropyl)-1H-pyrazol-4-yl)amino)pyrimidin-4-yl)amino)-N-ethylhexahydrocyclopenta[c]pyrrole-2(1H)-sulfonamide], half-maximal inhibition in data set [1] (IC50) was put at 0.8 nM. Besides, the IC50 in data set [2] is 5 nM. For the same molecule, in data set [3], the “Clearance (CL) after iv dosing” value was found to be 62.3 mL/min/kg, the F turned out to be 27.1%, the AUC(0-t) is 267 ng·h/mL and the half-life was 39.6 min. The Vd in data set [3] worked out at 1.97 L/kg.

Regarding `CC(=O)N1CC2CC(Nc3nc(Nc4cnn(CC(C)(C)O)c4)ncc3Cl)CC2C1` (stereo not shown) [Ex. 1, 1-(5-((5-chloro-2-((1-(2-hydroxy-2-methylpropyl)-1H-pyrazol-4-yl)amino)pyrimidin-4-yl)amino)hexahydrocyclopenta[c]pyrrol-2(1H)-yl)ethanone], in data set [4], the half-life at 5 μM came out at 112 min and the CLint scaled at 5 μM was 22.2 mL/min/kg. Besides, in data set [5], the half-life at 5 μM is 148 min and the CLint scaled at 5 μM was 11.7 mL/min/kg. The half-inhibitory concentration (IC50) in data set [6] stood at 10 nM. For the same molecule, 58 nM corresponded to half-maximal inhibition in data set [2] (IC50). Further, in data set [3], the “Clearance (CL) after iv dosing” value turned out to be 46.2 mL/min/kg, the F amounted to 61.7%, the AUC(0-t) came out at 360 ng·h/mL and the half-life was 38.4 min. In addition, the Vd in data set [3] was 1.53 L/kg.

In the case of `CC(O)Cn1cc(Nc2ncc(Cl)c(NC3CC4CN(S(=O)(=O)C5CC5)CC4C3)n2)cn1` (stereo not shown) [Ex. 44, 1-(4-((5-chloro-4-((2-(cyclopropylsulfonyl)octahydrocyclopenta[c]pyrrol-5-yl)amino)pyrimidin-2-yl)amino)-1H-pyrazol-1-yl)propan-2-ol], in data set [1], the concentration for half-maximal inhibition (IC50) is 1 nM. In data set [2], this molecule gave an IC50 of 5 nM. Also, in data set [3], the “Clearance (CL) after iv dosing” value amounted to 60.8 mL/min/kg, the F was 31.4%, the area under the curve AUC(0-t) amounted to 276 ng·h/mL and the half-life is 51.6 min. Besides, in data set [3], the Vd was 1.75 L/kg.

Regarding `CC(C)(O)Cn1cc(Nc2ncc(Cl)c(NC3CC4CN(C(=O)CC#N)CC4C3)n2)cn1` (stereo not shown) [Ex. 2, 3-(5-((5-chloro-2-((1-(2-hydroxy-2-methylpropyl)-1H-pyrazol-4-yl)amino)pyrimidin-4-yl)amino)hexahydrocyclopenta[c]pyrrol-2(1H)-yl)-3-oxopropanenitrile], the half-life at 5 μM in data set [4] worked out at 107 min; in data set [5] it was 106 min. The CLint scaled at 5 μM in data set [4] was 23.3 mL/min/kg; in data set [5] it was 16.4 mL/min/kg. Further, the IC50 in data set [6] was 2 nM; in data set [2], 28 nM.

`Cn1cc(Nc2ncc(Cl)c(NC3CC4CN(C(=O)CC5CC5)CC4C3)n2)cn1` (stereo not shown) [Ex. 12, 1-(5-((5-chloro-2-((1-methyl-1H-pyrazol-4-yl)amino)pyrimidin-4-yl)amino)hexahydrocyclopenta[c]pyrrol-2(1H)-yl)-2-cyclopropylethanone] had an IC50 in data set [6] of 12 nM. Further, in data set [2], the IC50 is 17 nM. For the same molecule, in data set [3], the “Clearance (CL) after iv dosing” value was 60.2 mL/min/kg, the F is recorded as 30.5%, the area under the curve AUC(0-t) turned out to be 278 ng·h/mL and the half-life is 14.4 min. Also, the Vd in data set [3] came out at 0.99 L/kg.

The term IC50 denotes the concentration that gives 50% inhibition. Read a high IC50 as lower potency. One may read the AUC(0-t) as exposure summed from dosing to a finite time, without extrapolation to infinity. Read a high AUC(0-t) as more exposure. By CLint scaled is commonly meant the capacity of the preparation to metabolise the compound, expressed as a volume cleared per time.
